Consider 55 compounds from paper PMC9995496, “A screen for MeCP2-TBL1 interaction inhibitors using a luminescence-based assay” (Scientific Reports, 2023).

Structures can show the parent of a compound that is named as a salt. Where two headings read alike, the source gives them in different places.

In this test the test system is PRKACA-PRKAR2A interaction (SmBiT-PRKACA / LgBiT-PRKAR2A), protein kinase A. Details: NanoLuc complementation counter-screen in cell extract, PRKACA with PRKAR2A, loss of luminescence, detects NanoLuc interference. The settings on record: 0.5 h, 20 µM, inhibitor.
Setting [1] is: counter-screen for NanoLuc interference, Inh (PKA).
Where [2] appears, read: counter-screen for NanoLuc interference.

With `CNC(=O)c1cc(Oc2ccc(NC(=O)Nc3ccc(Cl)c(C(F)(F)F)c3)c(F)c2)ccn1` [UM0141611:02, Regorafenib], under setting [1], the “Inh (PKA)” value came out at 5.988%.
Regarding `CC(C)Cc1ccc([C@@H](C)C(=O)NS(C)(=O)=O)cc1` [UM0141612:01, Reparixin], the “Inh (PKA)” value under setting [1] came out at 5.153%.
`CC(C)Cc1ccc([C@@H](C)C(=O)NS(C)(=O)=O)cc1` [UM0141612:02, Reparixin L-lysine salt]: the “Inh (PKA)” value under setting [1] is 7.24%.
`Cc1cccc(-c2[nH]ncc2-c2ccc3ncccc3n2)n1` [UM0141613:01, RepSox]: under setting [2], the “Inh (PKA)” value is reported as 2.359%.
Same read-out and setting: then `c1nc2c(NC3CCCCC3)nc(Nc3ccc(N4CCOCC4)cc3)nc2[nH]1` [UM0141614:01, Reversine], with 32.72%; and `CCOc1cc(C(C)(C)C)ccc1C1=N[C@@](C)(c2ccc(Cl)cc2)[C@@](C)(c2ccc(Cl)cc2)N1C(=O)N1CCN(CCCS(C)(=O)=O)CC1` [UM0141616:01, RG7112], with 18.3%; and `COc1cc(C(=O)O)ccc1NC(=O)[C@@H]1N[C@@H](CC(C)(C)C)[C@](C#N)(c2ccc(Cl)cc2F)[C@H]1c1cccc(Cl)c1F` [UM0141617:01, RG7388], with 51.62%.
On to `Cc1cc(/C=C/C#N)cc(C)c1Nc1ccnc(Nc2ccc(C#N)cc2)n1` [UM0141618:01, Rilpivirine], for which the “Inh (PKA)” value under setting [2] amounted to 30.56%.
Consider `COC(=O)N(C)c1c(N)nc(-c2nn(Cc3ccccc3F)c3ncccc23)nc1N` [UM0141619:01, Riociguat], for which, under setting [2], the “Inh (PKA)” value was 2.487%.
Take `CCN(C)C(=O)Oc1cccc([C@H](C)N(C)C)c1` [UM0141620:01, Rivastigmine]: the “Inh (PKA)” value under setting [1] is 1.357%.
Consider `O=C(NCc1cccc(O)c1)Nc1nc(-c2ccncc2)cs1` [UM0141621:01, RKI-1447], for which the “Inh (PKA)” value under setting [2] is listed as -11%.
Consider `N#CC[C@H](C1CCCC1)n1cc(-c2ncnc3[nH]ccc23)cn1` [UM0141622:01, Ruxolitinib phosphate], for which the “Inh (PKA)” value under setting [1] was 28.19%.
Consider `CC(C)=CCC/C(C)=C/CC/C(C)=C/CSc1ccccc1C(=O)O` [UM0141623:01, Salirasib], for which the “Inh (PKA)” value under setting [2] was 61.94%.
On to `CC(C)(C)NC(=O)[C@@H]1C[C@@H]2CCCC[C@@H]2CN1C[C@@H](O)[C@H](Cc1ccccc1)NC(=O)[C@H](CC(N)=O)NC(=O)c1ccc2ccccc2n1` [UM0141624:01, Saquinavir mesylate], for which the “Inh (PKA)” value under setting [2] was 9.291%.
Turning to `COc1nccc(-c2c(-c3ccc(F)cc3)ncn2[C@H]2CC[C@H](O)CC2)n1` [UM0141625:01, SB 239063], under setting [2], the “Inh (PKA)” value stood at 17.29%.
Turning to `O=C(Nc1ccc2[nH]nc(-c3ccncc3)c2c1)[C@@H]1CCN(CC(=O)N2CCN(c3ccc(-c4ncccn4)cc3)CC2)C1` [UM0141626:01, SCH772984], under setting [1], the “Inh (PKA)” value is recorded as 11.73%.
Turning to `CCOc1ccc(Oc2ccc(OCc3cc(F)ccc3F)cc2)c(N)c1` [UM0141627:01, SEA0400], under setting [2], the “Inh (PKA)” value is on record as 3.449%.
On to `CCCc1nn(C)c2c(=O)[nH]c(-c3cc(S(=O)(=O)N4CCN(C)CC4)ccc3OCC)nc12` [UM0141628:01, Sildenafil], for which the “Inh (PKA)” value under setting [1] was -0.5342%.
On to `COc1ccc2c(O[C@@H]3C[C@H]4C(=O)N[C@]5(C(=O)NS(=O)(=O)C6CC6)C[C@H]5/C=C\CCCCN(C)C(=O)[C@@H]4C3)cc(-c3nc(C(C)C)cs3)nc2c1C` [UM0141629:01, Simeprevir], for which the “Inh (PKA)” value was 16.13.
`O=C1c2ccccc2C(=O)c2oc(-c3ccccc3)nc21` [UM0141630:01, SJB2-043]: the “Inh (PKA)” value under setting [2] worked out at 4.073%.
As to `O=C1c2ccc(Nc3ccc(F)cc3F)cc2CCc2ccc(OC[C@H](O)CO)cc21` [UM0141631:01, Skepinone-L], the “Inh (PKA)” value under setting [2] is reported as 17.25%.
As to `CC(C)NC(=O)COc1cccc(-c2nc(Nc3ccc4[nH]ncc4c3)c3ccccc3n2)c1` [UM0141632:01, SLx-2119], the “Inh (PKA)” value under setting [2] is given as 49.23%.
Still for that read-out and setting: the figure for `Cc1c[nH]c(/C=C2\C(=O)Nc3ccccc32)c1CCC(=O)O` [UM0141633:01, SU 5402] is 46.56%.
On the same count and under the same terms, then `CCOC(=O)C1=CCCC[C@H]1S(=O)(=O)Nc1ccc(F)cc1Cl` [UM0141634:01, TAK-242], with 47.57%; and `COc1cccc2c1c(O)c(C(=O)N(C)c1ccc(C(F)(F)F)cc1)c(=O)n2C` [UM0141635:01, Tasquinimod], with 2.103%; and `Fc1ccccc1-c1nc2ccn(Cc3ccc(-c4ccc(C(F)(F)F)cc4C(F)(F)F)nn3)cc-2n1` [UM0141636:01, Tegobuvir], with 1.649%.
For the compound `Cc1cc(N2CCN([C@@H]3CN[C@H](C(=O)N4CCSC4)C3)CC2)n(-c2ccccc2)n1` [UM0141637:01, Teneligliptin hydrobromide], the “Inh (PKA)” value is listed as -1.766%.
Regarding `Cn1c(COP(=O)(NCCBr)NCCBr)cnc1[N+](=O)[O-]` [UM0141638:01, TH-302], the “Inh (PKA)” value is on record as 1.841%.
As for `N=C1CCCN1Cc1[nH]c(=O)[nH]c(=O)c1Cl` [UM0141639:01, Tipiracil hydrochloride], the “Inh (PKA)” value under setting [2] worked out at 0.165%.
The same measure, in the same setting: the figure for `Cn1c(=O)cc(N2CCC[C@@H](N)C2)n(Cc2cc(F)ccc2C#N)c1=O` [UM0141640:01, Trelagliptin] is -0.04176%; for `CC(C)[C@]12O[C@H]1[C@@H]1O[C@]13[C@]1(O[C@H]1C[C@H]1C4=C(CC[C@@]13C)C(=O)OC4)[C@@H]2O` [UM0141641:01, Triptolide] it is 1.248%.
Take `Cc1ccc(-c2csc3ncnc(SCCC(=O)O)c23)cc1` [UM0141643:01, TTP 22]: the “Inh (PKA)” value under setting [2] came to 12.61%.
Take `CCC1=C[C@@H]2CN(C1)Cc1c([nH]c3ccccc13)[C@@](C(=O)OC)(c1cc3c(cc1OC)N(C)[C@H]1[C@@](O)(C(=O)OC)[C@H](OC(C)=O)[C@]4(CC)C=CCN5CC[C@]31[C@@H]54)C2` [UM0141644:01, Vinorelbine ditartrate]: under setting [2], the “Inh (PKA)” value amounted to 3.937%.
On the same count and under the same terms, the figure for `Cc1cnc(Nc2ccc(F)cc2Cl)nc1-c1c[nH]c(C(=O)N[C@H](CO)c2cccc(Cl)c2)c1` [UM0141646:01, VX-11e] is 14.62%; for `O=C(Nc1ccc(-c2ccnc(Nc3ccc(N4CCOCC4)cc3)n2)cc1)C1CCCN1` (stereo not shown) [UM0141648:01, XL019] it is -3.897%.
Same read-out and setting: the figure for `CC(C)c1cc(CNc2nc(Nc3cc(C4CC4)[nH]n3)cc(N3CCN(C)CC3)n2)on1` [UM0141649:01, XL228] is 43.07%.
Regarding `CCOc1cc(C(=O)N2CCC(N3CCN(C)CC3)CC2)ccc1Nc1ncc2c(n1)N(C1CCCC1)c1ccccc1C(=O)N2C` [UM0141651:01, XMD17-109], the “Inh (PKA)” value under setting [2] came to 18.58%.
Still for that read-out and setting: then `CCOc1cc(N2CCC(O)CC2)ccc1Nc1ncc2c(n1)N(C)c1ccccc1C(=O)N2C` [UM0141652:01, XMD8-92], with 14.04%.
Still for that read-out and setting: the figure for `COc1ccc(C(=O)CC2(O)C(=O)Nc3c(Cl)ccc(Cl)c32)cc1` (stereo not shown) [UM0141653:01, YK-4-279] is 4.248%.
Turning to `C[C@]1(c2nc3c(C(N)=O)cccc3[nH]2)CCCN1` [UM0141654:01, Veliparib dihydrochloride], under setting [2], the “Inh (PKA)” value was determined as 0.673%.
Take `N[C@@H]1CCCN(c2c(/C=C3\SC(=O)NC3=O)cccc2-c2ccccc2)C1` [UM0141655:01, AZD1208]: the “Inh (PKA)” value under setting [2] is reported as 21.79%.
For the compound `CC(=O)O/N=C1\C(=O)N(Cc2cc(Cl)ccc2Cl)c2ccc(Cl)cc21` [UM0141658:01, LDN 57444], the “Inh (PKA)” value under setting [2] is given as 84.34%.
On to `Cc1ccc(/C=C2\CNC/C(=C\c3ccc(C)cc3)C2=O)cc1` [UM0141659:01, NSC 632839 hydrochloride], for which, under setting [2], the “Inh (PKA)” value turned out to be 12.94%.
`CC(C)(C(=O)NCC(F)(F)C(F)(F)F)C(=O)N[C@@H]1C(=O)Nc2ccccc2-c2ccccc21` [UM0141660:01, RO4929097]: the “Inh (PKA)” value under setting [2] was 10.15%.
Regarding `O=C(O)CC[C@H]1CC[C@@](c2cc(F)ccc2F)(S(=O)(=O)c2ccc(Cl)cc2)CC1` [UM0141661:01, MK-0752], the “Inh (PKA)” value under setting [2] was determined as 5.084%.
In the case of `CC(C)C[C@H](NC(=O)CNC(=O)c1cc(Cl)ccc1Cl)B1OC(=O)C(CC(=O)O)(CC(=O)O)O1` [UM0141662:01, MLN9708], under setting [2], the “Inh (PKA)” value is -0.4944%.
In the case of `CC(C)C[C@H](NC(=O)CNC(=O)c1cc(Cl)ccc1Cl)B(O)O` [UM0141663:01, MLN2238], under setting [2], the “Inh (PKA)” value turned out to be 0.9496%.
Regarding `CC(C)C[C@H](NC(=O)[C@@H](NC(=O)c1cccc(-c2ccccc2)n1)[C@@H](C)O)B(O)O` [UM0141664:01, CEP-18770], under setting [2], the “Inh (PKA)” value was found to be 2.205%.
With `COc1ccc(C[C@H](NC(=O)[C@H](C)NC(=O)CN2CCOCC2)C(=O)N[C@@H](Cc2ccccc2)C(=O)[C@@]2(C)CO2)cc1` [UM0141665:01, ONX-0914 (PR-957)], the “Inh (PKA)” value under setting [2] is 2.946%.
On to `C[C@H](NC(=O)Cc1cc(F)cc(F)c1)C(=O)N[C@@H]1C(=O)N(C)c2ccccc2-c2ccccc21` [UM0141666:01, YO-01027 (Dibenzazepine, DBZ)], for which the “Inh (PKA)” value under setting [2] is 4.42%.
Turning to `C[C@H](NC(=O)[C@@H](O)c1cc(F)cc(F)c1)C(=O)N[C@@H]1C(=O)N(C)c2ccccc2-c2ccccc21` [UM0141667:01, LY-411575], the “Inh (PKA)” value under setting [2] turned out to be 13.09%.
As for `NC(=O)[C@@H](CCC(F)(F)F)N(Cc1ccc(-c2ncon2)cc1F)S(=O)(=O)c1ccc(Cl)cc1` [UM0141668:01, BMS-708163 (Avagacestat)], the “Inh (PKA)” value under setting [2] was found to be 25.28%.
On to `C[C@H](NC(=O)CCC(F)(F)F)C(=O)N[C@@H]1C(=O)N(CCO)c2ncccc2-c2ccccc21` [UM0141669:01, LY3039478], for which the “Inh (PKA)” value under setting [2] is -1.62%.
Same read-out and setting: then `CC(C)(C)OC(=O)N[C@H]1CCCCC/C=C\[C@@H]2C[C@@]2(C(=O)NS(=O)(=O)C2CC2)NC(=O)[C@@H]2C[C@@H](OC(=O)N3Cc4cccc(F)c4C3)CN2C1=O` [UM0141670:01, Danoprevir (RG7227)], with 3.662%; and `CCC[C@H](NC(=O)[C@@H]1[C@H]2CCC[C@H]2CN1C(=O)[C@@H](NC(=O)[C@@H](NC(=O)c1cnccn1)C1CCCCC1)C(C)(C)C)C(=O)C(=O)NC1CC1` [UM0141671:01, Telaprevir (VX-950)], with 3.048%.
